Results published in ChEMBL document CHEMBL1131966, “On topography and functionality in the B-D rings of cephalostatin cytotoxins” (Bioorg Med Chem Lett, 1999).

Columns and labels:
P388 = assay: In vitro cytotoxicity against P388 leukemic cell line following a 6 day exposure.; format: functional, cell-based; settings: Mus musculus, P388, 144 h
A549 [1] = assay: In vitro cytotoxicity against Lung A-549 human tumors following a 2 day exposure.; format: functional; settings: A549, 48 h
A498 [2] = assay: In vitro cytotoxicity against Renal A-498 human tumors following a 2 day exposure.; format: functional; settings: A498, 48 h
SF-295 = assay: In vitro cytotoxicity against CNS SF-295 human tumors following a 2 day exposure.; format: functional; settings: SF-295, 48 h
HT-29 [3] = assay: In vitro cytotoxicity against Colon HT-29 human tumors following a 6 day exposure.; format: functional; settings: HT-29, 144 h, read-out: ED50 (the source's name)
HL-60 = assay: In vitro cytotoxicity against HL-60 leukemia human tumors following a 2 day exposure.; format: functional; settings: HL-60, 48 h
HT-29 [4] = assay: In vitro cytotoxicity against Colon HT-29 human tumors following a 2 day exposure.; format: functional; settings: HT-29, 48 h
Homo sapiens [5] = species: Homo sapiens; assay: In vitro cytotoxicity against Breast avg 1-3 types of human tumors following a 6 day exposure.; format: functional; settings: 144 h, read-out: ED50 (the source's name)
IGROV-1 = assay: In vitro cytotoxicity against Ovary IGROVIg OVI human tumors following a 2 day exposure.; format: functional; settings: IGROV-1, 48 h
LOX IMVI = assay: In vitro cytotoxicity against Skin LOX IMVI human tumors following a 2 day exposure.; format: functional; settings: 48 h
MCF7 = assay: In vitro cytotoxicity against Breast MCF-7 human tumors following a 2 day exposure.; format: functional; settings: 48 h
[6] = system: Panel NCI-60 (60 carcinoma cell lines); assay: In vitro cytotoxicity against a subset of 60 cell lines (NCI-60) in human tumors following a 2 day exposure. Values in parentheses is the % cell lines affected.; format: functional; settings: 48 h
NCI [7] = assay: In vitro cytotoxicity against a subset of 10 cell lines (NCI-10) in human tumors following a 2 day exposure. Values in parentheses is the % cell lines affected.; format: functional; settings: 48 h
PC-3 [8] = assay: In vitro cytotoxicity against prostate PC-3 human tumors following a 2 day exposure.; format: functional; settings: PC-3, 48 h
RXF 393 = assay: In vitro cytotoxicity against Renal RXF-393 human tumors following a 2 day exposure.; format: functional; settings: RXF 393, 48 h
Homo sapiens [9] = species: Homo sapiens; assay: In vitro cytotoxicity against various human tumors (6-8 lines) as determined in the Purdue cell culture laboratory, following a 6 day exposure; format: functional; settings: 144 h, read-out: ED50 (the source's name)
[10] = (§1) In vitro cytotoxicity against […] PACA-2 human tumors following a 6 day exposure; format: functional; settings: PaCa-2, 144 h, read-out: ED50 (the source's name)
PC-3 [11] = assay: In vitro cytotoxicity against prostate PC-3 human tumors following a 6 day exposure; format: functional; settings: PC-3, 144 h, read-out: ED50 (the source's name)
A498 [12] = assay: In vitro cytotoxicity against Renal A-498 human tumors following a 6 day exposure.; format: functional; settings: A498, 144 h, read-out: ED50 (the source's name)
A549 [13] = assay: In vitro cytotoxicity against Lung A-549 human tumors following a 6 day exposure.; format: functional; settings: A549, 144 h, read-out: ED50 (the source's name)
MIA PaCa-2 = assay: as §1; format: functional; settings: MIA PaCa-2, 144 h, read-out: ED50 (the source's name)
NCI [14] = assay: In vitro cytotoxicity against a subset of 10 cell lines (NCI-10) in human tumors following a 2 day exposure; ND is no data; format: functional; settings: 48 h

Structure (SMILES)	IC50 (P388) [nM]	GI50 (A549 [1]) [nM]	GI50 (A498 [2]) [nM]	GI50 (SF-295) [nM]	EC50 (HT-29 [3]) [nM]	GI50 (HL-60) [nM]	GI50 (HT-29 [4]) [nM]	EC50 (Homo sapiens [5]) [nM]	GI50 (IGROV-1) [nM]	GI50 (LOX IMVI) [nM]	GI50 (MCF7) [nM]	GI50 [6] [nM]	GI50 (NCI [7]) [nM]	GI50 (PC-3 [8]) [nM]	GI50 (RXF 393) [nM]	further results
CC(=O)O[C@H]1CC2Cc3nc4c(nc3C[C@]2(C)C2C[C@@H](O)[C@@]3(C)C(=CC5O[C@]6(CC[C@](C)(O)CO6)[C@@H](C)C53O)C21)CC1CCC2C(C[C@@H](O)[C@@]3(C)C2CC2OC5(CCC(C)(C)O5)[C@@H](C)C23)[C@@]1(C)C4 (stereo partly specified)	96	–	–	–	–	–	–	–	–	–	–	–	–	–	–	–
C[C@H]1C2C(CC3C4CCC5Cc6nc7c(nc6C[C@]5(C)C4CC(=O)[C@@]32C)CC2CC(=O)C3C4=CC5O[C@]6(CC[C@](C)(O)CO6)[C@@H](C)C5(O)[C@@]4(C)[C@H](O)CC3[C@@]2(C)C7)OC12CCC(C)(C)O2 (stereo partly specified)	19	–	–	–	–	–	–	–	–	–	–	–	–	–	–	–
CC1C2(O)C(C=C3C4CCC5Cc6nc7c(nc6C[C@]5(C)C4C[C@@H](O)[C@@]32C)CC2CCC3C4=CC5OC6(CCC(C)(C)O6)[C@@H](C)C5[C@@]4(C)[C@H](O)CC3[C@@]2(C)C7)O[C@]12CC[C@](C)(O)CO2 (stereo partly specified)	–	76	0.55	1.2	0.012	1.2	> 650	0.036	> 1000	12	37	> 34	4.2	12	0.55	–
C[C@@H]1C2(OC3C=C4C5CCC6Cc7nc8c(nc7C[C@]6(C)C5C[C@@H](O)[C@]4(C)C31O)CC1CCC3C4=CCC5[C@H](C)[C@@]6(OC[C@]45[C@H](O)CC3[C@@]1(C)C8)OC(C)(C)C[C@H]6O)O[C@](C)(CO)C[C@H]2O (stereo partly specified)	–	–	–	–	0.0012	–	–	0.0011	–	–	–	–	–	–	–	–
C[C@H]1C2C(C[C@H]3C4CCC5Cc6nc7c(nc6C[C@]5(C)C4C[C@@H](O)[C@]23C)CC2CCC3C4=CC5O[C@]6(CC[C@](C)(O)CO6)[C@@H](C)C5(O)[C@@]4(C)[C@H](O)CC3[C@@]2(C)C7)OC12CCC(C)(C)O2 (stereo partly drawn) [14-EPI-7'-DEOXYRITTERAZINE B]	–	76	> 300	9.3	–	> 660	> 650	–	> 1000	45	56	> 105	> 55	40	4.1	–
C[C@@H]1[C@]2(O[C@H]3C=C4[C@@H]5CC[C@H]6Cc7nc8c(nc7C[C@]6(C)[C@H]5C[C@@H](O)[C@]4(C)[C@]31O)C[C@@H]1CC[C@H]3C4=CC[C@@H]5[C@H](C)[C@@]6(OC[C@]45C(=O)C[C@@H]3[C@@]1(C)C8)OC(C)(C)C[C@H]6O)O[C@](C)(CO)C[C@H]2O [CEPHALOSTATIN 1]	–	0.4	< 0.1	< 0.1	–	0.2	6.3	–	10	0.4	2.5	1.2	0.8	< 0.1	< 0.1	–
C[C@@H]1[C@]2(O[C@H]3C=C4[C@@H]5CC[C@H]6Cc7nc8c(nc7C[C@]6(C)[C@H]5C[C@@H](O)[C@]4(C)[C@]31O)C[C@@H]1CC[C@H]3C4=C[C@@H]5O[C@]6(CC[C@](C)(O)CO6)C[C@]5(O)[C@@]4(C)[C@H](O)C[C@@H]3[C@@]1(C)C8)O[C@](C)(CO)C[C@H]2O [CEPHALOSTATIN 7]	–	138	31	11	30	25	271	38	480	37	27	50	16	23	7.9	EC50 (Homo sapiens [9]): 0.052 nM; EC50 [10]: 0.41 nM; EC50 (PC-3 [11]): 0.0021 nM
C[C@@H]1C2(OC3C=C4C5CCC6Cc7nc8c(nc7C[C@]6(C)C5C[C@@H](O)[C@]4(C)C31O)CC1CCC3C(CC(=O)[C@]45CO[C@@]6(OC(C)(C)C[C@H]6O)[C@@H](C)C4CCC35)[C@@]1(C)C8)O[C@](C)(CO)C[C@H]2O (stereo partly specified) [DIHYDROCEPHALOSTATIN 1]	–	0.59	3.6	< 0.1	–	0.12	1.1	–	2.9	0.17	3.5	2.4	0.8	0.22	< 0.1	–
COc1cccc2c1C(=O)c1c(O)c3c(c(O)c1C2=O)C[C@@](O)(C(=O)CO)C[C@@H]3O[C@H]1C[C@H](N)[C@H](O)[C@H](C)O1 [DOXORUBICIN]	–	–	–	–	37	–	–	150	–	–	–	–	–	–	–	EC50 (A498 [12]): 3.5 nM; EC50 (A549 [13]): 6.2 nM; EC50 (Homo sapiens [9]): 18.7 nM; EC50 (MIA PaCa-2): 6.3 nM; EC50 (PC-3 [11]): 57 nM
C[C@@H]1[C@@]2(CC[C@](C)(O)CO2)O[C@H]2C=C3[C@@H]4[C@@H](O)C[C@H]5Cc6nc7c(nc6C[C@]5(C)[C@H]4C[C@@H](O)[C@]3(C)[C@]21O)C[C@@H]1CC[C@H]2[C@H]3C[C@@H]4O[C@@]5(CCC(C)(C)O5)C[C@@H]4[C@@]3(C)[C@H](O)C[C@@H]2[C@@]1(C)C7 [RITTERAZINE B]	0.17	–	–	< 0.1	–	0.16	–	0.0021	–	–	–	–	–	–	< 0.1	GI50 (NCI [14]): 1 nM
C[C@@H]1[C@@]2(CC[C@](C)(O)CO2)O[C@H]2C=C3[C@@H]4[C@@H](O)C[C@H]5Cc6nc7c(nc6C[C@]5(C)[C@H]4C[C@@H](O)[C@]3(C)[C@]21O)C[C@@H]1CC[C@H]2[C@H]3C[C@@H]4O[C@@]5(CCC(C)(C)O5)C[C@@H]4[C@@]3(C)C(=O)C[C@@H]2[C@@]1(C)C7 [RITTERAZINE H]	18	–	–	–	–	–	–	–	–	–	–	–	–	–	–	–
C[C@@H]1[C@@]2(CC[C@](C)(O)CO2)O[C@H]2C=C3[C@@H]4[C@@H](O)C[C@H]5Cc6nc7c(nc6C[C@]5(C)[C@H]4C[C@@H](O)[C@]3(C)[C@]21O)C[C@@H]1CC[C@H]2C3=C[C@@H]4O[C@]5(CC[C@@](C)(O)CO5)[C@@H](C)[C@]4(O)[C@@]3(C)[C@H](O)C[C@@H]2[C@@]1(C)C7 [RITTERAZINE J]	14	–	–	–	–	–	–	–	–	–	–	–	–	–	–	–
C[C@@H]1[C@@]2(CC[C@](C)(O)CO2)O[C@H]2C=C3[C@H]4CC[C@H]5Cc6nc7c(nc6C[C@]5(C)[C@H]4C[C@@H](O)[C@]3(C)[C@]21O)C[C@@H]1CC[C@H]2C3=C[C@@H]4O[C@]5(CC[C@@](C)(O)CO5)[C@@H](C)[C@]4(O)[C@@]3(C)[C@H](O)C[C@@H]2[C@@]1(C)C7 [RITTERAZINE K]	10	110	190	4.1	28	4.4	288	11	347	20	100	96	4.5	91	1.4	EC50 (Homo sapiens [9]): 0.047 nM; EC50 (MIA PaCa-2): 0.051 nM; EC50 (PC-3 [11]): 0.0021 nM
C[C@@H]1C2(OC3C=C4C5CCC6Cc7nc8c(nc7C[C@]6(C)C5C[C@@H](O)[C@]4(C)C31O)CC1CCC3C4=CC5OC6(CCC(C)(C)O6)[C@@H](C)C5[C@@]4(C)[C@H](O)CC3[C@@]1(C)C8)O[C@](C)(CO)C[C@H]2O (stereo partly specified) [RITTEROSTATIN]	–	7.4	3	0.99	–	1.6	65	–	140	9.7	3.4	14	3.8	1.8	0.1	–
